Source: patent US12247010B2, “Tubulin inhibitors” (LIN BIOSCIENCE PTY LTD., priority 2017, dated 2025)

Tested on: U87MG cells
Experiment: Cytotoxicity assay (cell viability, CellTiter 96 Aqueous MTS)
Assay type: cell-based
Settings: Homo sapiens, U-87 MG, 72 h, 72 hours incubation, starting concentration 50 uM, 9 point half log dilution, average where tested repeatedly
Protocol: Example 3: Cytotoxicity Assay
U87MG cells were plated at a density of 7×10^3 cells/well and allowed to seed overnight. Cells were then treated with compounds from Table 1 or CMPD-1 (4-(2′-fluoro-[1,1′-biphenyl]-4-yl)-N-(4-hydroxyphenyl)butanamide as a positive control) were added to cells at a starting concentration of 50 uM, with a 9 point half log dilution, and incubated for 72 hours prior to viability determination. IC50 values were calculated from cell viability as measured using the CellTiter 96® Aqueous MTS reagent from Promega©, and the results are shown in Table 2.

COc1cccc(-c2ccc(CCCNC(=O)c3cnc(C)s3)cc2)c1F [Compound 304, N-(3-(2′-fluoro-3′-methoxy-[1,1′-biphenyl]-4-yl)propyl)-2-methylthiazole-5-carboxamide] was tested, and the IC50 was < 500 nM.
In the case of O=C(NCCCc1ccc(-c2ccccc2F)cc1)c1cnco1 [Compound 131, N-(3-(2′-fluoro-[1,1′-biphenyl]-4-yl)propyl)oxazole-5-carboxamide], the IC50 is reported as > 5000 nM.
For Cc1cc(C(=O)NCCCc2ccc(-c3ccc4c(cnn4C)c3)cc2)no1 [Compound 227, 5-methyl-N-(3-(4-(1-methyl-1H-indazol-5-yl)phenyl)propyl)isoxazole-3-carboxamide], the IC50 was < 500 nM.
With O=C(CCCc1ccc(-c2ccccc2F)cc1)Nc1ccc(O)nc1 [Compound 8, 4-(2′-fluoro-[1,1′-biphenyl]-4-yl)-N-(6-hydroxypyridin-3-yl)butanamide] the IC50 was > 5000 nM.
For Cc1nn(C)cc1-c1ccc(CCCC(=O)Nc2cccnc2)cc1 [Compound 203, 4-(4-(1,3-dimethyl-1H-pyrazol-4-yl)phenyl)-N-(pyridin-3-yl)butanamide], the IC50 was > 5000 nM.
O=C(CCCc1ccc(-c2nnco2)cc1)Nc1cccnc1 [Compound 204, 4-(4-(1,3,4-oxadiazol-2-yl)phenyl)-N-(pyridin-3-yl)butanamide] gave an IC50 of 1000 to 5000 nM.
Work on O=C(CCCc1ccc(-c2ccccc2F)cc1)Nc1cccnc1 [Compound 37, 4-(2′-fluoro-[1,1′-biphenyl]-4-yl)-N-(pyridin-3-yl)butanamide] yielded an IC50 of 501 to 1000 nM.
In the case of O=C(CCCc1ccc(-c2ccc3[nH]ccc3c2)cc1)Nc1cccnc1 [Compound 213, 4-(4-(1H-indol-5-yl)phenyl)-N-(pyridin-3-yl)butanamide], the IC50 is reported as < 500 nM.
For O=C(CCCc1ccc(-c2c(F)cccc2F)cc1)Nc1cccnc1 [Compound 159, 4-(2′,6′-difluoro-[1,1′-biphenyl]-4-yl)-N-(pyridin-3-yl)butanamide], the IC50 was 1000 to 5000 nM.
O=C(NCCCc1ccc(-c2ccc3ncccc3c2)cc1)c1cncnc1 [Compound 306, N-(3-(4-(quinolin-6-yl)phenyl)propyl)pyrimidine-5-carboxamide] was tested, and the IC50 was < 500 nM.
Cc1nc2cc(-c3ccc(CCCC(=O)Nc4cccnc4)cc3)ccc2n1C [Compound 297, 4-(4-(1,2-dimethyl-1H-benzo[d]imidazol-5-yl)phenyl)-N-(pyridin-3-yl)butanamide] was tested, and the IC50 was < 500 nM.
O=C(CCCc1ccc(-c2ccccc2F)cc1)NCC1CC1 [Compound 50, N-(cyclopropylmethyl)-4-(2′-fluoro-[1,1′-biphenyl]-4-yl)butanamide] showed an IC50 of 1000 to 5000 nM.
With Cc1ncc(C(=O)NCCCc2ccc(-c3ccc4c(cnn4C)c3)cc2)s1 [Compound 305, 2-methyl-N-(3-(4-(1-methyl-1H-indazol-5-yl)phenyl)propyl)thiazole-5-carboxamide] the IC50 was < 500 nM.
In the case of COc1ccc(NC(=O)CCCc2ccc(-c3ccccc3F)cc2)cn1 [Compound 39, 4-(2′-fluoro-[1,1′-biphenyl]-4-yl)-N-(6-methoxypyridin-3-yl)butanamide], the IC50 is reported as > 5000 nM.
For O=C(Cc1ccc(OC(F)(F)F)cc1)NCCCc1ccc(-c2ccccc2F)cc1 [Compound 120, N-(3-(2′-fluoro-[1,1′-biphenyl]-4-yl)propyl)-2-(4-(trifluoromethoxy)phenyl)acetamide], the IC50 was 501 to 1000 nM.
With O=C(CCCc1ccc(-c2cscn2)cc1)Nc1cccnc1 [Compound 217, N-(pyridin-3-yl)-4-(4-(thiazol-4-yl)phenyl)butanamide] the IC50 was > 5000 nM.
For Cc1cc(-c2ccc(CCCC(=O)Nc3cccnc3)cc2)cc2cn[nH]c12 [Compound 301, 4-(4-(7-methyl-1H-indazol-5-yl)phenyl)-N-(pyridin-3-yl)butanamide], the IC50 was < 500 nM.
Cc1ccc(C(=O)NCC(C)(C)Cc2ccc(-c3ccc4c(cnn4C)c3)cc2)cn1 [Compound 277, N-(2,2-dimethyl-3-(4-(1-methyl-1H-indazol-5-yl)phenyl)propyl)-6-methylnicotinamide] gave an IC50 of 501 to 1000 nM.
Cc1cc(C(=O)NCCCc2ccc(-c3ccccc3F)cc2)cc(C)c1O [Compound 127, N-(3-(2′-fluoro-[1,1′-biphenyl]-4-yl)propyl)-4-hydroxy-3,5-dimethylbenzamide] was tested, and the IC50 was > 5000 nM.
For Cn1cnc(C(=O)NCCCc2ccc(-c3ccccc3F)cc2)c1 [Compound 88, N-(3-(2′-fluoro-[1,1′-biphenyl]-4-yl)propyl)-1-methyl-1H-imidazole-4-carboxamide], the IC50 was > 5000 nM.
In the case of Cc1cc(C(=O)NCCCc2ccc(-c3ccccc3F)cc2)[nH]n1 [Compound 139, N-(3-(2′-fluoro-[1,1′-biphenyl]-4-yl)propyl)-3-methyl-1H-pyrazole-5-carboxamide], the IC50 is reported as 501 to 1000 nM.
In the case of O=C(CCCc1ccc(-c2ccc3[nH]c(=O)oc3c2)cc1)Nc1cccnc1 [Compound 208, 4-(4-(2-oxo-2,3-dihydrobenzo[d]floxazol-6-yl)phenyl)-N-(pyridin-3-yl)butanamide], the IC50 is reported as 1000 to 5000 nM.
O=C(NCCCc1ccc(-c2ccccc2F)cc1)c1ccc(C(F)(F)F)nc1 [Compound 83, N-(3-(2′-fluoro-[1,1′-biphenyl]-4-yl)propyl)-6-(trifluoromethyl)nicotinamide] gave an IC50 of 1000 to 5000 nM.
With O=C(Nc1cn[nH]c1)N1CCN(c2ccc(-c3ccccc3F)cc2)CC1 [Compound 281, 4-(2′-fluoro-[1,1′-biphenyl]-4-yl)-N-(1H-pyrazol-4-yl)piperazine-1-carboxamide] the IC50 was > 5000 nM.
Work on O=C(CCCc1ccc(-c2ccccc2F)cc1)Nc1ccc2[nH]ncc2c1 [Compound 4, 4-(2′-fluoro-[1,1′-biphenyl]-4-yl)-N-(1H-indazol-5-yl)butanamide] yielded an IC50 of 1000 to 5000 nM.
In the case of O=C(CCCc1ccc(-c2cn[nH]c2)cc1)Nc1cccnc1 [Compound 176, 4-(4-(1H-pyrazol-4-yl)phenyl)-N-(pyridin-3-yl)butanamide], the IC50 is reported as > 5000 nM.
O=C(CCCc1ccc(-c2cccnc2)cc1)Nc1cccnc1 [Compound 158, N-(pyridin-3-yl)-4-(4-(pyridin-3-yl)phenyl)butanamide] was tested, and the IC50 was > 5000 nM.
Work on Cn1cc(C(=O)NCCCc2ccc(-c3ccccc3F)cc2)cn1 [Compound 146, N-(3-(2′-fluoro-[1,1′-biphenyl]-4-yl)propyl)-1-methyl-1H-pyrazole-4-carboxamide] yielded an IC50 of 1000 to 5000 nM.
In the case of Cc1ncc(C(=O)NCCCc2ccc(-c3cnc4[nH]ccc4c3)cc2)s1 [Compound 309, N-(3-(4-(1H-pyrrolo[2,3-b]pyridin-5-yl)phenyl)propyl)-2-methylthiazole-5-carboxamide], the IC50 is reported as < 500 nM.
For Cc1oncc1C(=O)NCCCc1ccc(-c2ccccc2F)cc1 [Compound 285, N-(3-(2′-fluoro-[1,1′-biphenyl]-4-yl)propyl)-5-methylisoxazole-4-carboxamide], the IC50 was > 5000 nM.
With Cn1cnc2cc(C(=O)NCCCc3ccc(-c4ccccc4F)cc3)cnc21 [Compound 95, N-(3-(2′-fluoro-[1,1′-biphenyl]-4-yl)propyl)-3-methyl-3H-imidazo[4,5-b]pyridine-6-carboxamide] the IC50 was < 500 nM.
With O=C(CCCc1ccc(-c2ccccc2F)cc1)NCc1cccnc1 [Compound 41, 4-(2′-fluoro-[1,1′-biphenyl]-4-yl)-N-(pyridin-3-ylmethyl)butanamide] the IC50 was > 5000 nM.
O=C(CCCc1ccc(-c2ccccc2F)cc1)Nc1nccs1 [Compound 38, 4-(2′-fluoro-[1,1′-biphenyl]-4-yl)-N-(thiazol-2-yl)butanamide] was tested, and the IC50 was > 5000 nM.
